Calls of active or inactive are those of the source. No cut-off for these calls is given here.
Key:
[1] = Inhibition of human N-terminal GST-tagged PDE4D7 (2 to 748 residues) expressed in baculovirus infected Sf9 cells using cAMP as substrate after 1 hr by fluorescence polarization assay
[2] = target: T1, 3',5'-cyclic-AMP phosphodiesterase 4B (Homo sapiens, UniProt Q07343); test: Inhibition of human full length N-terminal GST-tagged PDE4B1 expressed in baculovirus infected Sf9 cells using cAMP as substrate incubated for 1 hr by fluorescence polarization assay
T1 sequence (Q07343 whole entry): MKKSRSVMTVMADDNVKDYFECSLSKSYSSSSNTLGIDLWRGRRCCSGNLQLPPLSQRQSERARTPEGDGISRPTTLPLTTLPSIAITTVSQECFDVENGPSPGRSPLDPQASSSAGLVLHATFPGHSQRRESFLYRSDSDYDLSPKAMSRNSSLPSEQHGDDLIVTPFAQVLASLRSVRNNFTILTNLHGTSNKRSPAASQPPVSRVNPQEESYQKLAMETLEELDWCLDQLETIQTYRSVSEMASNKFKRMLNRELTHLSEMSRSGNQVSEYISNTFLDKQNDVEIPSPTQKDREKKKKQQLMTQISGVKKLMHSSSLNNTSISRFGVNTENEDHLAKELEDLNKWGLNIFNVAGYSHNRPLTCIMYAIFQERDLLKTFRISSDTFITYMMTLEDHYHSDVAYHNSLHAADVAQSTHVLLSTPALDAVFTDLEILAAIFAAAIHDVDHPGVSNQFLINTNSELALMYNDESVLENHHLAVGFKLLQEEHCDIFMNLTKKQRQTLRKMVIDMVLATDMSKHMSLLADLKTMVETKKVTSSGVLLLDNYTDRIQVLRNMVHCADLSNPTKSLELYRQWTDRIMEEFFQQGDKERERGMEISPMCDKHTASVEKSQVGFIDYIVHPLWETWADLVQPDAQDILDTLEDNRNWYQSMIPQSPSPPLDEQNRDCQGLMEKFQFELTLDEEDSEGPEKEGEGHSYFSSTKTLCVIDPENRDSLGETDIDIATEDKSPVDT

SH-SY5Y [3] = test: Neuroprotective activity against MPP+-induced cell apoptosis in human SH-SY5Y cells assessed as effect on morphological changes at 30 to 60 uM preincubated for 1 hr followed by MPP+ addition and measured after 48 hrs by PI staining based inverse fluorescent microscopic analysis; format: functional
SH-SY5Y [4] = test: Cytotoxicity against human SH-SY5Y cells assessed as reduction in cell viability at 3.1 to 50 uM incubated for 48 hrs by MTT assay; format: cell-based
[5] = target: T1, 3',5'-cyclic-AMP phosphodiesterase 4B; test: Inhibition of human full length N-terminal GST-tagged PDE4B1 expressed in baculovirus infected Sf9 cells using cAMP as substrate incubated for 1 hr by fluorescence polarization assay relative to control
SH-SY5Y [6] = test: Neuroprotective activity in human SH-SY5Y cells assessed as reduction in MPP+ induced cytotoxicity at 30 to 60 uM preincubated for 1 hr followed by MPP+ addition and measured after 48 hrs by MTT assay; format: functional, cell-based
[7] = Mean residence time (0 to infinity) in Sprague-Dawley rat at 10 mg/kg, po by measured up to 24 hrs by LC-MS /MS analysis; format: ADME, organism-based; settings: in vivo
[8] = Half life in Sprague-Dawley rat at 10 mg/kg, po by measured up to 24 hrs by LC-MS /MS analysis; format: ADME, organism-based; settings: in vivo
[9] = Tmax in Sprague-Dawley rat at 2 mg/kg, iv by measured up to 24 hrs by LC-MS /MS analysis; format: ADME, organism-based; settings: in vivo
[10] = AUC (0 to infinity) in Sprague-Dawley rat at 10 mg/kg, po by measured up to 24 hrs by LC-MS /MS analysis; format: ADME, organism-based; set-up: dose 10 mg/kg, time infinity, route oral; settings: in vivo
[11] = AUC (0 to infinity) in Sprague-Dawley rat at 2 mg/kg, iv by measured up to 24 hrs by LC-MS /MS analysis; format: ADME, organism-based; set-up: dose 2 mg/kg, time infinity, route intravenous; settings: in vivo
[12] = Cmax in Sprague-Dawley rat at 2 mg/kg, iv by measured up to 24 hrs by LC-MS /MS analysis; format: ADME, organism-based; set-up: dose 2 mg/kg, route intravenous; settings: in vivo
[13] = Tmax in Sprague-Dawley rat at 10 mg/kg, po by measured up to 24 hrs by LC-MS /MS analysis; format: ADME, organism-based; settings: in vivo
[14] = Clearance in Sprague-Dawley rat at 2 mg/kg, iv by measured up to 24 hrs by LC-MS /MS analysis; format: ADME, organism-based; settings: in vivo
[15] = Oral bioavailability in Sprague-Dawley rat at 10 mg/kg by measured up to 24 hrs by LC-MS /MS analysis; format: ADME, organism-based; settings: in vivo
[16] = Cmax in Sprague-Dawley rat at 10 mg/kg, po by measured up to 24 hrs by LC-MS /MS analysis; format: ADME, organism-based; set-up: dose 10 mg/kg, route oral; settings: in vivo
[17] = Volume of distribution at steady state in Sprague-Dawley rat at 2 mg/kg, iv by measured up to 24 hrs by LC-MS /MS analysis; format: ADME, organism-based; settings: in vivo, read-out: Vdss
[18] = Half life in Sprague-Dawley rat at 2 mg/kg, iv by measured up to 24 hrs by LC-MS /MS analysis; format: ADME, organism-based; settings: in vivo
[19] = Mean residence time (0 to infinity) in Sprague-Dawley rat at 2 mg/kg, iv by measured up to 24 hrs by LC-MS /MS analysis; format: ADME, organism-based; settings: in vivo
[20] = AUC (0 to t) in Sprague-Dawley rat at 2 mg/kg, iv by measured up to 24 hrs by LC-MS /MS analysis; format: ADME, organism-based; set-up: dose 2 mg/kg, time < 24 hr, route intravenous; settings: in vivo
[21] = AUC (0 to t) in Sprague-Dawley rat at 10 mg/kg, po by measured up to 24 hrs by LC-MS /MS analysis; format: ADME, organism-based; set-up: time < 24 hr, dose 10 mg/kg, route oral; settings: in vivo

| IC50 [1] | IC50 [2] | SMILES | also measured |
| --- | --- | --- | --- |
| > 100 µM | > 100 µM | COc1ccc(CN[C@H](C(=O)O)C(C)C)cc1-c1cccc(Cl)c1 |  |
| > 10 µM | > 10 µM | COC(=O)c1ccc(NCc2ccc(OC)c(-c3cccc(Cl)c3)c2)cc1 |  |
| > 100 µM | > 100 µM | COc1ccc(CNc2cccc(N(C)C)c2)cc1-c1cccc(Cl)c1 |  |
| 1.2 µM | 2.3 µM | COc1ccc(CNc2cccnc2)cc1-c1cccc(Cl)c1 | Imax [5]: 100% |
| > 100 µM | > 100 µM | COc1ccc(CN[C@@H](Cc2c[nH]c3ccccc23)C(=O)O)cc1-c1cccc(Cl)c1 |  |
| > 10 µM | > 10 µM | COc1ccc(CN2CCCC(C)C2)cc1-c1cccc(Cl)c1 (centres undefined) |  |
| > 10 µM | > 10 µM | COc1ccc(CN2CCC(O)CC2)cc1-c1cccc(Cl)c1 |  |
| > 10 µM | > 10 µM | COc1ccc(CN[C@@H](Cc2ccccc2)C(=O)O)cc1-c1cccc(Cl)c1 |  |
| > 10 µM | > 10 µM | COc1ccc(CNc2ccccn2)cc1-c1cccc(Cl)c1 |  |

Second part, the molecule before the results:

| SMILES | IC50 [1] | IC50 [2] | also measured |
| --- | --- | --- | --- |
| COc1ccc(CN2CCOCC2)cc1-c1cccc(F)c1 | 2.1 µM | 3.7 µM |  |
| COc1ccc(CNc2ccc(Cl)cc2)cc1-c1cccc(Cl)c1 | > 10 µM | > 10 µM |  |
| COc1ccc(NCc2ccc(OC)c(-c3cccc(Cl)c3)c2)cn1 | > 10 µM | > 10 µM |  |
| COc1cccc(-c2cc(CNc3cccnc3)ccc2OC)c1 | 1.2 µM | 0.68 µM | Activity (SH-SY5Y [3]): Active; Activity (SH-SY5Y [4]): Non-Toxic; Imax [5]: 90%; Activity (SH-SY5Y [6]): Active |
| FC(F)Oc1ccc(CN2CCOCC2)cc1-c1cccc(Cl)c1 | 2.1 µM | 4.1 µM |  |
| COc1ccc(CN2CCOCC2)cc1-c1cccc(Cl)c1 | 1.8 µM | 3.5 µM |  |
| COc1ccc(CNc2cccnc2)cc1-c1cccc(F)c1 | 0.38 µM | 0.34 µM | Activity (SH-SY5Y [3]): Active; Activity (SH-SY5Y [4]): Non-Toxic; Imax [5]: 93%; MRT inf [7]: 7.61 h; half-life [8]: 4.32 h; Tmax [9]: 4.8 min; AUC(0-inf) [10]: 134 ng·h/mL; AUC(0-inf) [11]: 327 ng·h/mL; Cmax [12]: 701 ng/mL; Tmax [13]: 3.33 h; clearance [14]: 103 mL/min/kg; bioavailability [15]: 8.2%; Cmax [16]: 14.7 ng/mL; Vd [17]: 4.35 L/kg; half-life [18]: 1.26 h; MRT inf [19]: 0.69 h; AUC(0-t) at 24 h [20]: 325 ng·h/mL; Activity (SH-SY5Y [6]): Active; AUC(0-t) at 24 h [21]: 84.4 ng·h/mL |
| Fc1cccc(-c2cc(CNc3cccnc3)cc3c2OCC3)c1 | 1.28 µM | 0.79 µM |  |
| FC(F)Oc1ccc(CNc2cccnc2)cc1-c1cccc(Cl)c1 | > 10 µM | > 10 µM |  |
| COc1ccc(NCc2ccc(OC)c(-c3cccc(Cl)c3)c2)cc1 | > 10 µM | > 10 µM |  |
| Clc1cccc(-c2cc(CNc3cccnc3)cc3c2OCC3)c1 | 1.31 µM | 0.94 µM |  |
| O=C(Nc1ccccc1Cl)c1ccc(OC(F)F)c(OCC2CC2)c1 | 0.04 µM | 0.17 µM |  |
| COc1ccc(C2CNC(=O)C2)cc1OC1CCCC1 (centres undefined) [ROLIPRAM] | 0.3 µM |  |  |
| COc1ccc(CNc2ccc(F)cc2)cc1-c1cccc(Cl)c1 | > 10 µM | > 10 µM |  |

— ChEMBL document CHEMBL4390657, “Discovery of arylbenzylamines as PDE4 inhibitors with potential neuroprotective effect” (Eur J Med Chem, 2019)
